Measurements as given in article PMC3997178 (Neuron, 2014).

Columns and labels:
[1] = molecular target: GluN1/GluN2A NMDA receptors (Rattus norvegicus, UniProt Q00959); assay type: cell-based
[2] = tested on: GluN1/GluN2D NMDA receptors; assay: TEVC inhibition of currents, GluN1/GluN2D in Xenopus oocytes; assay type: cell-based, rat
[3] = molecular target: GluN1/GluN2A NMDA receptors (Rattus norvegicus, UniProt P35439+Q00959); assay type: cell-based
[4] = molecular target: GluA2 AMPA receptors (Leu483Tyr, flip) (Rattus norvegicus, UniProt P19491, L504Y); assay: TEVC inhibition of L-glutamate induced currents, non-desensitizing GluA2 mutant; assay type: cell-based
[5] = molecular target: GluK1 kainate receptors (Tyr506Cys Leu768Cys) (Rattus norvegicus, UniProt P22756, L798C/Y536C); assay: TEVC inhibition of L-glutamate induced currents, non-desensitizing GluK1 mutant; assay type: cell-based
[6] = molecular target: GluN1/GluN2A Tyr730Phe NMDA receptor (Rattus norvegicus, UniProt Q00959, Y730F); assay: TEVC mutational analysis, GluN2A Tyr730Phe; details: Tyr730Phe vs wild type
[7] = molecular target: GluN1/GluN2A Tyr730Leu NMDA receptor (Rattus norvegicus, UniProt Q00959, Y730L); assay: TEVC mutational analysis, GluN2A Tyr730Leu; details: Tyr730Leu vs wild type
[8] = molecular target: GluN1/GluN2A Tyr730Met NMDA receptor (Rattus norvegicus, UniProt Q00959, Y730M); assay: TEVC mutational analysis, GluN2A Tyr730Met; details: Tyr730Met vs wild type
[9] = molecular target: GluN1/GluN2A Val734Ala NMDA receptor (Rattus norvegicus, UniProt Q00959, V734A); assay: TEVC mutational analysis, GluN2A Val734Ala; details: Val734Ala vs wild type
[10] = molecular target: GluN1/GluN2A Tyr737Ala NMDA receptor (Rattus norvegicus, UniProt Q00959, Y737A); assay: TEVC mutational analysis, GluN2A Tyr737Ala; details: Tyr737Ala vs wild type
[11] = molecular target: GluN1/GluN2A Lys738Met NMDA receptor (Rattus norvegicus, UniProt Q00959, K738M); assay: TEVC mutational analysis, GluN2A Lys738Met; details: Lys738Met vs wild type
[12] = molecular target: GluN1/GluN2A Phe416Ala NMDA receptor (Rattus norvegicus, UniProt Q00959, F416A); assay: TEVC mutational analysis, GluN2A Phe416Ala; details: Phe416Ala vs wild type
[13] = molecular target: GluN1/GluN2A Val713Ala NMDA receptor (Rattus norvegicus, UniProt Q00959, V713A); assay: TEVC mutational analysis, GluN2A Val713Ala; details: Val713Ala vs wild type
[14] = tested on: non-NMDA receptors; assay: D-AP5 effect on non-NMDA receptors; assay type: cell-based; details: as high as 100 µM
[15] = molecular target: GluA2 Leu704Tyr (Rattus norvegicus, UniProt P19491, L504Y/L725Y); assay: D-AP5 sensitivity of GluA2 Leu704 to tyrosine mutant; assay type: cell-based; details: data not shown
[16] = molecular target: GluK1 Met722Tyr (Rattus norvegicus, UniProt P22756, M752Y); assay: D-AP5 sensitivity of GluK1 Met722 to tyrosine mutant; assay type: cell-based; details: data not shown
[17] = tested on: GluN2A containing NMDA receptors; details: ref Frizelle et al., 2006; cited from earlier work
[18] = tested on: NMDA receptors; details: ref Frizelle et al., 2006; Urwyler et al., 1996; cited from earlier work
[19] = 100 µM compound in the presence of 30 µM glutamate

Chain of GluN1/GluN2A Tyr730Leu NMDA receptor (Q00959 20-1464 Y730L limits assumed, other chains not shown): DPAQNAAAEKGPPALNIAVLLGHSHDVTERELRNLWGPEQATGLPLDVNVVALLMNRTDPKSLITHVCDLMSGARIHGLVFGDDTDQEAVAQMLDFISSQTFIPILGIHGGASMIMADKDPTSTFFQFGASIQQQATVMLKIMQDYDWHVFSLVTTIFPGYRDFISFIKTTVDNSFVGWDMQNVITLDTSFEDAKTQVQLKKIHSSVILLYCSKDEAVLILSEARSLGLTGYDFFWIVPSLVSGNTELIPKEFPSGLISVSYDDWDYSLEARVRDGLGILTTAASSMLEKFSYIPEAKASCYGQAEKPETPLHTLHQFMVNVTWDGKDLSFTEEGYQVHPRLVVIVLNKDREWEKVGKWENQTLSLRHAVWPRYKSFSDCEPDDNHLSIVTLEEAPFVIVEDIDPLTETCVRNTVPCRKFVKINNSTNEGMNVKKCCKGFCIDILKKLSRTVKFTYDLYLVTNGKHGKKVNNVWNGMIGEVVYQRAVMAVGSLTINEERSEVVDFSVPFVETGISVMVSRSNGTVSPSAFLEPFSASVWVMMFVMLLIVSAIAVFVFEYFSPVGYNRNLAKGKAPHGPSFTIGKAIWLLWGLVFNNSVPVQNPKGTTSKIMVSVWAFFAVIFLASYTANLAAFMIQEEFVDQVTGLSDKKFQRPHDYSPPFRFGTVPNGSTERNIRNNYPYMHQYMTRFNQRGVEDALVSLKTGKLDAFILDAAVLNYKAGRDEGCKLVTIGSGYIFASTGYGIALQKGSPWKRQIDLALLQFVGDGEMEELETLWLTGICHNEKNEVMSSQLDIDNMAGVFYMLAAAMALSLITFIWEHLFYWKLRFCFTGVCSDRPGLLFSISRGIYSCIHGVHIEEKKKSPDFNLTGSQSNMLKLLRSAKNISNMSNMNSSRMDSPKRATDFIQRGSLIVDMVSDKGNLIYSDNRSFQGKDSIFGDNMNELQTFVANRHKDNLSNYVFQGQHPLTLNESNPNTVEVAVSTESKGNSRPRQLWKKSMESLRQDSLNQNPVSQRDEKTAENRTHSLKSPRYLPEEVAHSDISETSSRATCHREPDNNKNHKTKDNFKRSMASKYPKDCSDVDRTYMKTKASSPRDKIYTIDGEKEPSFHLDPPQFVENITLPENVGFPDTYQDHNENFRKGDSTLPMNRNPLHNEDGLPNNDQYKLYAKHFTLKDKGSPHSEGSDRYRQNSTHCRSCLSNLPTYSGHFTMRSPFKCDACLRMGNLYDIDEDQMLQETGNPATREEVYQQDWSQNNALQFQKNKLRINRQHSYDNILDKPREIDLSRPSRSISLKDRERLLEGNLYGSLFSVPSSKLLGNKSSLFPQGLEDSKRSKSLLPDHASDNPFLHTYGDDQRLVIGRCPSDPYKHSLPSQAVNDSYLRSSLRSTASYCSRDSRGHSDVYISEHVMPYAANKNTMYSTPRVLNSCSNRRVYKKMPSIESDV
Chain of GluN1/GluN2A Tyr737Ala NMDA receptor (Q00959 20-1464 Y737A limits assumed, other chains not shown): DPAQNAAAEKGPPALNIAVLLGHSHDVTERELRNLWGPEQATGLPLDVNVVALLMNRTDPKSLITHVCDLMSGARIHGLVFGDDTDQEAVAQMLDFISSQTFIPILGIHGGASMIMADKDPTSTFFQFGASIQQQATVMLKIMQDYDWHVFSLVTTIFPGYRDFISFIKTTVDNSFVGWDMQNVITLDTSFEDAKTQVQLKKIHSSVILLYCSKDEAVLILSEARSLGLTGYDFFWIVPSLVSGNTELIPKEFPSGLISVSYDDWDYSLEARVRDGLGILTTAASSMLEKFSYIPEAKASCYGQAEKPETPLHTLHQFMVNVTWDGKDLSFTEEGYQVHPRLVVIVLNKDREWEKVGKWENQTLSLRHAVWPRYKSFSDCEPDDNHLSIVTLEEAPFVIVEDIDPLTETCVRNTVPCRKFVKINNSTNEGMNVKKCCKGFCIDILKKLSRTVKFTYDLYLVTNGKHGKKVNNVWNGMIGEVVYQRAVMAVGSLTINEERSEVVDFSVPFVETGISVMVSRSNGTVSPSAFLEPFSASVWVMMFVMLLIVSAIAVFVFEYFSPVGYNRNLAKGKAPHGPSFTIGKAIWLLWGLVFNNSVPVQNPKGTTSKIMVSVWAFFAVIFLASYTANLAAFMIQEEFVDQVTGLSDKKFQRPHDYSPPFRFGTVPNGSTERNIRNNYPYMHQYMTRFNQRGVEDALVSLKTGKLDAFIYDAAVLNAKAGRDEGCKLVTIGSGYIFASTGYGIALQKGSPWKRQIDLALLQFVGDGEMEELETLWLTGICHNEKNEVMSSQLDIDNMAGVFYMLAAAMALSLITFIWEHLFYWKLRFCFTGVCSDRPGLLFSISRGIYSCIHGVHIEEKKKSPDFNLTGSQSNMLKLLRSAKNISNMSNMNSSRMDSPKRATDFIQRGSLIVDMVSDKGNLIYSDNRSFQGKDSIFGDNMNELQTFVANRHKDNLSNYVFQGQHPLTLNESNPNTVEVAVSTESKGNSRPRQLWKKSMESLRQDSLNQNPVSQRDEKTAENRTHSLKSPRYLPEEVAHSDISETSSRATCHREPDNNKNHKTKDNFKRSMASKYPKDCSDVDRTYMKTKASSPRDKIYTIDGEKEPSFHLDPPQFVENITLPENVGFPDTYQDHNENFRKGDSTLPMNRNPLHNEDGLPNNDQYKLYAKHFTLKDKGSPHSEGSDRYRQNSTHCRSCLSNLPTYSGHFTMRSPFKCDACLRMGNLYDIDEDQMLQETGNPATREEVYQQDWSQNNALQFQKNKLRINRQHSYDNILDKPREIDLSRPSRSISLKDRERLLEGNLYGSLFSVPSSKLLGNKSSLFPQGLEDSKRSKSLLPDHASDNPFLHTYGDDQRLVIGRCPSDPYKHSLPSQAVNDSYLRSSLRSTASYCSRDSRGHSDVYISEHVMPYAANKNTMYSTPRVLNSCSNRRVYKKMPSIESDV
Chain of GluN1/GluN2A Val734Ala NMDA receptor (Q00959 20-1464 V734A limits assumed, other chains not shown): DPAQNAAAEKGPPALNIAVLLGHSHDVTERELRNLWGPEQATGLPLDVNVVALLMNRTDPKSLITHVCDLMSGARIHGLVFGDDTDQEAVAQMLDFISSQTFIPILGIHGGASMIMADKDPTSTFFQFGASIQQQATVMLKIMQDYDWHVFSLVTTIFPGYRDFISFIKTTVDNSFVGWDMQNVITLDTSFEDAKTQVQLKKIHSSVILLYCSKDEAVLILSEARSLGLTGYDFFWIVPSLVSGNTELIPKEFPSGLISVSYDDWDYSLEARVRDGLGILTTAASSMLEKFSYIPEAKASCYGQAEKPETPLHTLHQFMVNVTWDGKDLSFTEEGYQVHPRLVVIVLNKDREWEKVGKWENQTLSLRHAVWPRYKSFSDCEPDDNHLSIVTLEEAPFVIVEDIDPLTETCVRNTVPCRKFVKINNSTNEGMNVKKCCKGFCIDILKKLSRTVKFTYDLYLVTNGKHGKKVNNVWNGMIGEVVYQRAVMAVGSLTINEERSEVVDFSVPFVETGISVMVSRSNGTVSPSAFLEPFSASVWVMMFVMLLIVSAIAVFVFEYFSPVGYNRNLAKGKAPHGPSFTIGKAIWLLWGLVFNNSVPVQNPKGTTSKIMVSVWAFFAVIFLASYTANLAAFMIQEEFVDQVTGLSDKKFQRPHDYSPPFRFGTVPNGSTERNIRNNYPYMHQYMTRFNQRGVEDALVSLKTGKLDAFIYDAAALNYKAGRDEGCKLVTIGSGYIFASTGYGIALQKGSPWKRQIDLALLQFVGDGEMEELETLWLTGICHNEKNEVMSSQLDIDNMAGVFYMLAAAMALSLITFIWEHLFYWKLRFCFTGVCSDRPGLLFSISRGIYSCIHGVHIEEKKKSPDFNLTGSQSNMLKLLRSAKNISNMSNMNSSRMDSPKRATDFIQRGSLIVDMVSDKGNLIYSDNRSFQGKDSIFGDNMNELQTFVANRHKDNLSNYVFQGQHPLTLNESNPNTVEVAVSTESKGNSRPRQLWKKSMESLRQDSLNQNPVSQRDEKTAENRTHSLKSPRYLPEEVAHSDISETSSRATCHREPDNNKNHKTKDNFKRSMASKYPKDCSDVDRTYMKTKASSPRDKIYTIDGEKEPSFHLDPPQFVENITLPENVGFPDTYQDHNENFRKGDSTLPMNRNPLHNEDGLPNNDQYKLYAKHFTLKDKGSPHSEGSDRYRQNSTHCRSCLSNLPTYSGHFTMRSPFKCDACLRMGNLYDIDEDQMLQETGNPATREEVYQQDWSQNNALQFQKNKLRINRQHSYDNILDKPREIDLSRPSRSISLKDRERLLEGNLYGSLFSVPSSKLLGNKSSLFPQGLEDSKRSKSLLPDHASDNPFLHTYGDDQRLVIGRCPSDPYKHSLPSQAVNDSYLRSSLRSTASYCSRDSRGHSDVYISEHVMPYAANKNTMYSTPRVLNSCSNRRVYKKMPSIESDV

O=C(O)C1NCCN(C(=O)c2ccc3c(ccc4ccccc43)c2)C1C(=O)O (single isomer, unassigned; (+)) [(+)-PPDA, 1-(Phenanthrene-2-carbonyl)piperazine-2,3-dicarboxylic acid]
fold weaker potency than (−)-PPDA ([1]; dose-response inhibition, TEVC): 6–7 fold
fold higher potency toward GluN1/GluN2D than GluN1/GluN2A [2]: 5–6 fold
fold weaker potency than (−)-PPDA ([2]; dose-response inhibition): 6–7 fold

O=C(O)C1NCCN(C(=O)c2ccc3c(ccc4ccccc43)c2)C1C(=O)O (single isomer, unassigned; (-)) [(−)-PPDA, 1-(Phenanthrene-2-carbonyl)piperazine-2,3-dicarboxylic acid]
Ki [3]: 0.82 µM
inhibition of current ([1]; 100 µM compound in the presence of agonists (100 µM glycine/30 µM glutamate)): completely inhibited
Ki [4]: 7.85 µM
inhibition of current [4, 19]: completely inhibited
Ki [5]: 1.17 µM
inhibition of current [5, 19]: completely inhibited
change in sensitivity [6]: increase in (−)-PPDA sensitivity
change in sensitivity [7]: little or no change
change in sensitivity [8]: little or no change
effect of mutation on potency [9]: decreases the (−)-PPDA sensitivity
effect of mutation on potency [10]: decreases the (−)-PPDA sensitivity
effect of mutation on potency [11]: increases the (−)-PPDA sensitivity
effect of mutation on sensitivity [12]: minor effects
effect of mutation on sensitivity [13]: minor effects

N[C@H](CCCP(=O)(O)O)C(=O)O [D-AP5, D-(−)-2-Amino-5-phosphonopentanoic acid]
inhibitory effect [14]: no inhibitory effect
sensitivity to D-AP5 [15]: does not confer sensitivity
sensitivity to D-AP5 [16]: does not confer sensitivity
change in sensitivity [6]: five-fold decrease in sensitivity
fold increase in Ki [7]: ~ 20 fold
fold increase in Ki [8]: ~ 80 fold
effect of mutation on potency [9]: only minor effects
effect of mutation on potency [10]: only minor effects
effect of mutation on potency [11]: only minor effects
effect of mutation on sensitivity [12]: minor effects
effect of mutation on sensitivity [13]: minor effects

C[C@H](N[C@@H](c1cccc2[nH]c(=O)c(=O)[nH]c12)P(=O)(O)O)c1ccc(Br)cc1 [NVP-AAM077]
specificity toward GluN2A containing over GluN2B containing NMDA receptors [17]: 5 fold
potency [18]: nanomolar potency

N[C@@H](Cc1cc(-c2ccc(Cl)cc2Cl)cc(CP(=O)(O)O)c1O)C(=O)O [SDZ220-040]
potency [18]: nanomolar potency
